Read-outs that look alike come from different tables or passages of the source.
Assays:
[1] = system: muscles of rabbits (sacrospinales group); test: Intramuscular tissue irritation in rabbits, microscopic observations (Example 2)
[2] = system: muscles of rabbits (sacrospinales group); conditions: rabbit, in vivo

CSc1ccc2c(c1)N(CCC1CCCCN1C)c1ccccc1S2 (stereo not drawn) [Mellaril base, thioridazine]
evidence of suppuration in the inflammatory zone ([1]; Day 4 post-injection, regardless of concentration): high-frequency evidence of suppuration
evidence of connective tissue irritation ([1]; Day 7 and Day 14): became apparent by Day 7 and more frequent and extreme in its occurrence by Day 14

CN(C)CCCN1c2ccccc2Sc2ccc(Cl)cc21 [chloropromazine, Chlorpromazine]
evidence of connective tissue irritation [2]: became apparent by Day 7 and more frequent and extreme in its occurrence by Day 14

Source: US4297353A, “Non-irritating injectable dosage forms” (priority 1980, dated 1981)
